Values quoted from earlier work in article PMC9109461, “Challenges and opportunities in the development of metal-based anticancer theranostic agents” (Bioscience Reports, 2022).

Assays:
[1] = system: CaSki cells; design: method as in PMID 30551086
[2] = system: HeLa cells; design: method as in PMID 28948792; conditions: MTT assay
[3] = system: A549R; design: method as in PMID 30888144; conditions: A549R cells

For [(cis-Pt(NH3)2Cl2] [cisplatin], the IC50 [1] is listed as 4.2 µM, the IC50 [2] is listed as 3 ± 1.2 µM and the IC50 [3] is listed as 51.3 ± 1.9 µM.
